Measurements published in PubChem BioAssay (NCI).
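Cultured in 96-well plates, cells were exposed to test compound for 48 hours across five concentrations. At the GI50, growth is halved. Definition used: TGI = concentration required for complete inhibition of growth.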

Key:
Experiment in all cases: DTP human tumour cell line panel, 48 h
UO-31 renal = system: UO-31 renal
786-0 renal = system: 786-0 renal
SNB-19 CNS = system: SNB-19 CNS
BT-549 breast = system: BT-549 breast
ACHN renal = system: ACHN renal
SN12C renal = system: SN12C renal
M14 melanoma = system: M14 melanoma
CAKI-1 renal = system: CAKI-1 renal
HL-60(TB) leukemia = system: HL-60(TB) leukemia
PC-3 prostate = system: PC-3 prostate
A549 NSCLC = system: A549 NSCLC
SK-MEL-28 melanoma = system: SK-MEL-28 melanoma
MCF7 breast = system: MCF7 breast
EKVX NSCLC = system: EKVX NSCLC
SNB-75 CNS = system: SNB-75 CNS
MOLT-4 leukemia = system: MOLT-4 leukemia
MDA-MB-435 = system: MDA-MB-435
NCI-H226 lung = system: NCI-H226 lung
NCI/ADR-RES ovarian = system: NCI/ADR-RES ovarian
HOP-62 NSCLC = system: HOP-62 NSCLC
DU-145 prostate = system: DU-145 prostate
COLO 205 colon = system: COLO 205 colon
KM12 colon = system: KM12 colon
HCC-2998 colon = system: HCC-2998 colon
HCT-15 colon = system: HCT-15 colon
MDA-N = system: MDA-N
UACC-257 melanoma = system: UACC-257 melanoma
HOP-92 NSCLC = system: HOP-92 NSCLC
NCI-H23 lung = system: NCI-H23 lung
OVCAR-8 ovarian = system: OVCAR-8 ovarian
T-47D breast = system: T-47D breast
SK-OV-3 ovarian = system: SK-OV-3 ovarian
SW-620 colon = system: SW-620 colon
U251 CNS = system: U251 CNS
TK-10 renal = system: TK-10 renal
HCT-116 colon = system: HCT-116 colon
SK-MEL-2 melanoma = system: SK-MEL-2 melanoma
OVCAR-5 ovarian = system: OVCAR-5 ovarian
LOX IMVI melanoma = system: LOX IMVI melanoma
MDA-MB-231 breast = system: MDA-MB-231 breast
SF-295 CNS = system: SF-295 CNS
NCI-H460 lung = system: NCI-H460 lung
OVCAR-3 ovarian = system: OVCAR-3 ovarian
SF-539 CNS = system: SF-539 CNS
IGROV1 ovarian = system: IGROV1 ovarian
UACC-62 melanoma = system: UACC-62 melanoma
HT29 colon = system: HT29 colon
SK-MEL-5 melanoma = system: SK-MEL-5 melanoma
A498 renal = system: A498 renal
RXF 393 renal = system: RXF 393 renal
NCI-H522 lung = system: NCI-H522 lung
K-562 leukemia = system: K-562 leukemia
MALME-3M melanoma = system: MALME-3M melanoma
RPMI-8226 leukemia = system: RPMI-8226 leukemia
SF-268 CNS = system: SF-268 CNS
SR leukemia = system: SR leukemia
CCRF-CEM leukemia = system: CCRF-CEM leukemia

CC(=O)C1C(=O)C(=O)N(c2ccc(Cl)c(Cl)c2)C1=O (stereo unspecified)
TGI (UO-31 renal): > 100000 nM
TGI (786-0 renal): > 100000 nM
TGI (SNB-19 CNS): > 100000 nM
TGI (BT-549 breast): > 100000 nM
TGI (ACHN renal): > 100000 nM
TGI (SN12C renal): > 100000 nM
TGI (M14 melanoma): > 100000 nM
TGI (CAKI-1 renal): > 100000 nM
TGI (HL-60(TB) leukemia): > 100000 nM
TGI (PC-3 prostate): > 100000 nM
TGI (A549 NSCLC): > 100000 nM
TGI (SK-MEL-28 melanoma): > 100000 nM
TGI (MCF7 breast): > 100000 nM
TGI (EKVX NSCLC): > 100000 nM
TGI (SNB-75 CNS): > 100000 nM
TGI (MOLT-4 leukemia): > 100000 nM
TGI (MDA-MB-435): > 100000 nM
TGI (NCI-H226 lung): > 100000 nM
TGI (NCI/ADR-RES ovarian): > 100000 nM
TGI (HOP-62 NSCLC): > 100000 nM
TGI (DU-145 prostate): > 100000 nM
TGI (COLO 205 colon): > 100000 nM
TGI (KM12 colon): > 100000 nM
TGI (HCC-2998 colon): > 100000 nM
TGI (HCT-15 colon): > 100000 nM
TGI (MDA-N): > 100000 nM
TGI (UACC-257 melanoma): > 100000 nM
TGI (HOP-92 NSCLC): > 100000 nM
TGI (NCI-H23 lung): > 100000 nM
TGI (OVCAR-8 ovarian): > 100000 nM
TGI (T-47D breast): > 100000 nM
TGI (SK-OV-3 ovarian): > 100000 nM
TGI (SW-620 colon): > 100000 nM
TGI (U251 CNS): > 100000 nM
TGI (TK-10 renal): > 100000 nM
TGI (HCT-116 colon): > 100000 nM
TGI (SK-MEL-2 melanoma): > 100000 nM
TGI (OVCAR-5 ovarian): > 100000 nM
TGI (LOX IMVI melanoma): > 100000 nM
TGI (MDA-MB-231 breast): > 100000 nM
TGI (SF-295 CNS): > 100000 nM
TGI (NCI-H460 lung): > 100000 nM
TGI (OVCAR-3 ovarian): > 100000 nM
TGI (SF-539 CNS): > 100000 nM
TGI (IGROV1 ovarian): > 100000 nM
TGI (UACC-62 melanoma): > 100000 nM
TGI (HT29 colon): > 100000 nM
TGI (SK-MEL-5 melanoma): > 100000 nM

CC1OC(OC2C(O)CC(OC3C(O)CC(OC4CCC5(C)C(CCC6C5CCC5(C)C(C7=CC(=O)OC7)CCC65O)C4)OC3C)OC2C)CC(O)C1O (stereo unspecified)
TGI (UO-31 renal): 151 nM
GI50 (786-0 renal): < 12.4 nM
TGI (786-0 renal): 21.9 nM
GI50 (A498 renal): < 10 nM
TGI (A498 renal): 30.1 nM
TGI (SNB-19 CNS): 304 nM
TGI (BT-549 breast): 61.8 nM
TGI (ACHN renal): 106 nM
TGI (RXF 393 renal): 78.5 nM
TGI (SN12C renal): 130 nM
GI50 (M14 melanoma): 95.6 nM
TGI (M14 melanoma): 268 nM
TGI (CAKI-1 renal): 52.7 nM
TGI (NCI-H522 lung): 22.4 nM
GI50 (HL-60(TB) leukemia): 45.1 nM
TGI (HL-60(TB) leukemia): 415 nM
TGI (PC-3 prostate): 170 nM
TGI (K-562 leukemia): 204 nM
TGI (A549 NSCLC): 29.5 nM
TGI (SK-MEL-28 melanoma): 423 nM
TGI (MCF7 breast): > 100000 nM
TGI (EKVX NSCLC): 80.9 nM
TGI (SNB-75 CNS): 653 nM
TGI (MALME-3M melanoma): 75.6 nM
GI50 (MOLT-4 leukemia): 165 nM
TGI (MDA-MB-435): 147 nM
TGI (NCI-H226 lung): 174 nM
TGI (NCI/ADR-RES ovarian): 293 nM
TGI (RPMI-8226 leukemia): 1470 nM
TGI (HOP-62 NSCLC): 41.7 nM
GI50 (DU-145 prostate): < 12 nM
TGI (DU-145 prostate): < 20.4 nM
TGI (COLO 205 colon): 142 nM
TGI (KM12 colon): 209 nM
TGI (SF-268 CNS): 61.4 nM
TGI (HCC-2998 colon): 584 nM
TGI (HCT-15 colon): 86.7 nM
TGI (MDA-N): 138 nM
TGI (UACC-257 melanoma): 219 nM
TGI (HOP-92 NSCLC): 190 nM
TGI (NCI-H23 lung): 51.7 nM
GI50 (OVCAR-8 ovarian): < 18.7 nM
TGI (OVCAR-8 ovarian): 70.8 nM
GI50 (T-47D breast): 56 nM
TGI (T-47D breast): 1730 nM
TGI (SK-OV-3 ovarian): 143 nM
TGI (SW-620 colon): 282 nM
GI50 (U251 CNS): < 17.7 nM
TGI (U251 CNS): 46.7 nM
TGI (TK-10 renal): 87.6 nM
GI50 (HCT-116 colon): 11 nM
TGI (HCT-116 colon): 100 nM
TGI (SK-MEL-2 melanoma): 447 nM
TGI (OVCAR-5 ovarian): 148 nM
GI50 (LOX IMVI melanoma): < 12.1 nM
TGI (LOX IMVI melanoma): 58.7 nM
TGI (MDA-MB-231 breast): 786 nM
TGI (SF-295 CNS): 99.8 nM
GI50 (NCI-H460 lung): < 11.6 nM
TGI (NCI-H460 lung): < 18.7 nM
TGI (OVCAR-3 ovarian): 48.5 nM
TGI (SF-539 CNS): 21.9 nM
TGI (IGROV1 ovarian): 542 nM
TGI (UACC-62 melanoma): 152 nM
TGI (HT29 colon): 123 nM
TGI (SK-MEL-5 melanoma): 62.4 nM

C/C=C1\C(=O)O[C@H]2C/C(C)=C/CC/C(C)=C/CC[C@@]3(C)O[C@@H]3C[C@@H]12
TGI (UO-31 renal): > 100000 nM
TGI (786-0 renal): > 100000 nM
TGI (A498 renal): > 100000 nM
TGI (SNB-19 CNS): > 100000 nM
TGI (BT-549 breast): > 100000 nM
TGI (ACHN renal): > 100000 nM
TGI (RXF 393 renal): > 100000 nM
TGI (SN12C renal): > 100000 nM
TGI (M14 melanoma): > 100000 nM
TGI (CAKI-1 renal): > 100000 nM
TGI (HL-60(TB) leukemia): > 100000 nM
TGI (SR leukemia): > 100000 nM
TGI (PC-3 prostate): > 100000 nM
TGI (K-562 leukemia): > 100000 nM
TGI (A549 NSCLC): > 100000 nM
TGI (SK-MEL-28 melanoma): > 100000 nM
TGI (MCF7 breast): > 100000 nM
TGI (EKVX NSCLC): > 100000 nM
TGI (SNB-75 CNS): > 100000 nM
TGI (MALME-3M melanoma): > 100000 nM
TGI (MOLT-4 leukemia): > 100000 nM
TGI (MDA-MB-435): > 100000 nM
TGI (NCI/ADR-RES ovarian): > 100000 nM
TGI (RPMI-8226 leukemia): > 100000 nM
TGI (HOP-62 NSCLC): > 100000 nM
TGI (DU-145 prostate): > 100000 nM
TGI (COLO 205 colon): > 100000 nM
TGI (KM12 colon): > 100000 nM
TGI (SF-268 CNS): > 100000 nM
TGI (HCC-2998 colon): > 100000 nM
TGI (HCT-15 colon): > 100000 nM
TGI (MDA-N): > 100000 nM
TGI (UACC-257 melanoma): > 100000 nM
TGI (CCRF-CEM leukemia): > 100000 nM
TGI (OVCAR-8 ovarian): > 100000 nM
TGI (T-47D breast): > 100000 nM
TGI (SK-OV-3 ovarian): > 100000 nM
TGI (SW-620 colon): > 100000 nM
TGI (U251 CNS): > 100000 nM
TGI (TK-10 renal): > 100000 nM
TGI (HCT-116 colon): > 100000 nM
TGI (SK-MEL-2 melanoma): > 100000 nM
TGI (OVCAR-5 ovarian): > 100000 nM
TGI (MDA-MB-231 breast): > 100000 nM
TGI (SF-295 CNS): > 100000 nM
TGI (NCI-H460 lung): > 100000 nM
TGI (OVCAR-3 ovarian): > 100000 nM
TGI (SF-539 CNS): > 100000 nM
TGI (IGROV1 ovarian): > 100000 nM
TGI (UACC-62 melanoma): > 100000 nM
TGI (HT29 colon): > 100000 nM
TGI (SK-MEL-5 melanoma): > 100000 nM
